Read-outs that look alike come from different tables or passages of the source. Values belong to the molecule of their own block, whether it stands above or below them.
Tests used:
[1] = system: Atrogin-1, MuRF-1, FoxO3a expression; assay: qPCR of atrophy genes in dexamethasone-treated myotubes; type: cell-based, mouse; conditions: for Atrogin-1 and FoxO3a expression: 10 μM dexamethasone 24 hours
Protocol: (§1) C2C12 myoblasts were seeded onto 6-well plates in a growth medium (GM). After reaching confluence, the cultures were treated with DM for 72 hours, and myotube atrophy was induced with DM containing 10 μM dexamethasone for 24 hours in the presence or absence of the drug of interest. Myotubes were visualized using hematoxylin and eosin staining according to a previously published protocol, and imaged with an optical microscope (Olympus CKX41, Japan). A myotube distribution was calculated by dividing the number of myotubes in each group by the total number of myotubes per image.
(§2) The transcription level of the gene was measured using a StepOnePlus Real Time PCR System (manufactured by Applied Biosystems, UK). cDNA was reverse transcribed from total RNA using an AccuPower RT PreMix (manufactured by Bioneer, USA). Real-time PCR was performed by modifying the manufacturer's instructions as follows.
(§3) PCR was performed three times using a total of 20 μL of 2×Power SYBR Green PCR Master Mix containing 200 nM of specific primers and 1 μL of cDNA. 10 minutes of incubation was performed at 95° C. prior to PCR amplification. The amplification consisted of 40 cycles of denaturation (for 15 seconds at 95° C.), annealing (for 1 minute at 60° C.), and extension (for 20 seconds at 72° C.). Extension and fluorescence detection were performed at 72° C. after each cycle. After the final cycle, melting point analysis was performed using continuous fluorescence detection on samples at a temperature in a range of 60° C. to 95° C. Specific cDNA samples were included in each run and used as a reference for comparison between runs. Expression levels of GAPDH were used for normalization and expression levels of all other genes were calculated.

C2C12 myoblasts [2] = assay: MTT assay, myoblast viability; type: cell-based, mouse; conditions: for concentration at which cytotoxicity was not observed: MTT; for IC50: read-out: IC50, MTT assessment
Protocol: C2C12 mouse skeletal muscle progenitor cells (myoblasts) were grown in a growth medium including Dulbecco's Modified Eagle's Medium (DMEM) supplemented with 10% fetal bovine serum (FBS), 50 units/mL if penicillin, and […] of streptomycin (PenStrep).
(§4) Cell proliferation was evaluated through MTT (3-(4,5-dimethylthiazol-2-yl)-2,5-diphenyltetrazolium bromide) assay as described above. Myoblasts were seeded 3 times into 96-well plates at a density of 2×10^3 cells per well. A compound to be tested was added, followed by 48 hours of incubation, the medium was changed to an MTT solution (0.5 mg/mL, final concentration), and the plate was incubated in an incubator at 37° C., 5%, CO2 conditions. After 60 minutes of incubation, 50 μL of DMSO was added. Optical density in each well was measured at 570 nm using a microplate reader (VersaMax, Molecular Devices, USA). For myotube analysis, myoblasts were differentiated for […], the medium was supplemented with the compound of interest, 48 hours of incubation was additionally performed, and the cultures were assayed.

C2C12 myotubes [3] = assay: Dexamethasone-induced myotube atrophy, H&E morphology; type: cell-based, mouse; conditions: co-treatment with 10 μM dexamethasone; for average myotube diameter: 24 hours
Protocol: as §1
(§5) To evaluate myotube formation and atrophy, five microscopic fields of H&E-stained or MitoTracker Red CMX-Ros-stained cultures were randomly captured, and multinuclear myotube formation and diameters were calculated. Myotubes were designated as multinucleated cells containing three or more nuclei, and the diameters of myotubes were calculated using ImageJ 1.48 software (National Institutes of Health, Bethesda, MD, USA).

C2C12 myotubes [4] = assay: SUnSET assay of protein synthesis; type: cell-based, mouse
Protocol: Surface sensing translation (SUnSET) assay was performed as described above. Briefly, 1 μg/mL puromycin was added to the culture and the harvest was lysed after 10 minutes. For immunoblotting, the myotube extract was treated with anti-puromycin 12D10 antibody (MABE343; Millipore).

[5] = system: Pax7, Myf5, MyoG, Myh2 expression; assay: qPCR of myogenic markers in differentiating myoblasts; type: cell-based, mouse; conditions: differentiation medium, 100 mM myo-inositol
Protocol: as §2, §3

C2C12 myotubes [6] = assay: MTT assay and microscopy, myotube viability; type: cell-based, mouse
Protocol: (§6) Then, the myoblasts were treated with a differentiation medium (DMEM supplemented with 2% horse serum and PenStrep) for 72 hours so that the myoblasts were induced to differentiate into myotubes.
as §4

C2C12 myoblasts [7] = assay: Myogenesis, myotube formation and morphology without dexamethasone; type: cell-based, mouse; conditions: for myotube formation and overall myotube diameters: 10 μM ebselen, 5 mM LiCl or 1.25 μM BIO, 24 hours
Protocol: as §6
In differentiation cultures, myotubes were visualized by treatment with 50 nM MitoTracker Red CMX-Ros and […] DAPI in a differentiation medium at 37° C. for 30 minutes and imaged using a fluorescence microscope (Leica DMI3000B, Germany) as described above.
as §5

C57BL/6J mice [8] = assay: Skeletal muscle atrophy dexamethasone model; type: in vivo, mouse
Protocol: 13-week-old male C57BL/6J mice were treated with drugs as follows: • 1) Injection of vehicle (4% hydroxypropyl-β-cyclodextrin) alone; • 2) 15 mg/kg of dexamethasone dissolved in vehicle; • 3) 15 mg/kg of dexamethasone and 1 mg/kg of ebselen; and • 4) Injection of 15 mg/kg dexamethasone and 3 mg/kg ebselen (n=5 per group).
The muscle condition was evaluated after intraperitoneal injection daily for 14 days with the same drug as above.
A grip strength of each mouse was recorded using a BIO-GS3 (Bioseb, USA). To measure the grip strength, mice were placed on a metal grid to grip the metal grid with four paws and were gently pulled back until the mice were unable to continue holding the grid. Muscle strength was expressed using the maximum value obtained from three trials at 1-minute intervals.
Mice were placed in the center of a grid, and it was made sure that the grid was gripped by the limbs of the mice. Next, the grid was turned over and hung at a height of 50 cm above a baseline, and the hanging time was measured up to 10 minutes.
In the case of the dexamethasone-induced atrophy model, the quadriceps, gastrocnemius and splenic muscles were dissected and weighed. The quadriceps were stained with H&E according to the same protocol used for the glycerol test and used for histological analysis.

C57BL/6J mice [9] = assay: Skeletal muscle degenerative glycerol model; type: in vivo, mouse
Protocol: The glycerol infusion protocol was used to induce muscle degeneration. Male C57BL/6J mice were anesthetized with PBS containing ketamine (22 mg/kg; Yuhan, Republic of Korea) and xylazine (10 mg/kg; Bayer, Republic of Korea), 100 μL glycerol (50% vol/vol) was injected into unilateral gastrocnemius muscle and splenic muscle.
The mice were treated with vehicle (0.5% methyl cellulose) or with vehicle+ebselen (30 mg/kg) via oral gavage every 24 hours (n=6 per group). A muscle fatigue test was performed after 5 days.
Muscle fatigue was measured using a known protocol (Chiu, et al.). In summary, mice were trained prior to initiating the fatigue task using an accelerated Rotarod (Ugo Basile, Italy). Mice were trained with a Rotarod at a constant speed of 13 rpm for 15 minutes. After 15-minute recovery, mice were placed on a Rotarod adapted to accelerate to 13 to 25 rpm within 3 minutes, for 15 minutes. After 24 hours, the muscle fatigue test was performed with a ramping rate of 13 to 25 rpm within 3 minutes and held at 25 rpm for 30 minutes. For each mouse, a delay time falling from the Rotarod was measured. Mice being tiered were classified as falling 4 times within 1 minute and the test was stopped.
Before sacrificing the mice, the mice were anesthetized by intraperitoneal injection of PBS containing ketamine (22 mg/kg; Yuhan Corporation, Korea) and xylazine (10 mg/kg; Bayer, Korea). After sacrificing the mice, the gastrocnemius and splenic muscles of the glycerol injury model were dissected and weighed. For histological analysis, the muscles were incubated overnight with 4% paraformaldehyde at 4° C., fixed, and embedded in paraffin. 5-μm muscle sections were obtained and was stained with H&E using a kit according to the manufacturer's instructions (Merck & Co., USA). Damaged areas and cross-sectional areas were measured using ImageJ 1.48 software (National Institutes of Health).

IMPase = IMPase activity assay in myotubes (myo-inositol assay kit); type: cell-based, mouse; conditions: 10 μM dexamethasone
Protocol: IMPase activity in cells and tissues was measured using a myo-inositol assay kit (Megazyme, Ireland) according to the manufacturer's instructions. The cell […] was sonicated in PBS for 90 seconds with a 30-second on and 15-second off cycle (Vibra-Cell, USA) as described above, and then centrifuged at 13,000×g for 15 minutes as described above. Thus, the supernatant was prepared.

FoxO3a = assay: Immunocytochemistry of FoxO3a in myotubes; type: cell-based, mouse
Protocol: Myoblasts were differentiated into myotubes in 6 well plates. The myotubes were then immunostained for FoxO3a (Cell Signaling Technology, dilution of 1:400). Alexa Fluor 488 goat anti-mouse IgG was used as a secondary antibody (manufactured by Invitrogen). Nuclei were stained using DAPI solution (1 μM dissolved in third distilled water). Staining was visualized by fluorescence microscopy (Leica DMI3000 B).

human skeletal myoblasts = assay: Dexamethasone atrophy in human skeletal myotubes; type: cell-based; conditions: 24 hours
Protocol: Human skeletal myoblasts were purchased from Thermo-Fisher Scientific. Myoblasts were thawed in a water bath, washed with […], and centrifuged at 180 g for 5 minutes at room temperature. Next, myoblasts were resuspended in DM and seeded in a 12-well plate at a density of 4.8×10^4 cells/well. After 72 hours, the myoblasts were treated with a compound for 24 hours. The myotube diameter was measured by optical microscopy analysis of DIC captured images (Olympus CKX41).

[10] = 100 mM myo-inositol, no dexamethasone

Molecule: O=C1c2ccccc2[Se](=O)N1c1ccccc1 (centres unmarked) [ebselen oxide]
Atrogin-1 and FoxO3a expression [1]: inhibited the expression

Molecule: CC(Oc1ccc(O)cc1)(P(=O)(O)O)P(=O)(O)O [L-690,330, [1-(4-hydroxyphenoxy)-1-phosphonoethyl]phosphonic acid]
concentration at which cytotoxicity was not observed (C2C12 myoblasts [2]): up to 50 μM
FoxO3a expression ([1]; 10 μM dexamethasone): inhibited the up-regulation
proportion of larger diameter myotubes (C2C12 myotubes [3]): larger diameter myotubes were observed
average myotube diameter (C2C12 myotubes [3]): increased

Molecule: O[C@H]1[C@H](O)[C@@H](O)[C@H](O)[C@@H](O)[C@H]1O [myo-inositol]
protein synthesis (C2C12 myotubes [4]; alone or with dexamethasone): decreased
expression of atrogin-1, MuRF-1 and FoxO3a ([1]; 10 μM dexamethasone, 100 mM myo-inositol): further increased
expression of MyoG and Myh2 [5]: reduced
expression of Pax7 and Myf5 [5]: increased
cytotoxicity (C2C12 myotubes [6]; myotubes, 500 mM, 48 hours): significant cytotoxicity
concentration without cytotoxicity / effect on cell viability (C2C12 myotubes [6]; myotubes, MTT, 48 hours): below 250 mM
myotube length (C2C12 myotubes [3]): significantly reduced
average myotube diameter (C2C12 myotubes [3]): significantly reduced
average myotube diameter (C2C12 myoblasts [7]; [10]): decreased
average myotube length (C2C12 myoblasts [7]; [10]): decreased
myotube morphology (C2C12 myoblasts [7]; 100 mM, 48 hours, H&E): induced shortened and narrower myotubes
number of immature myotubes (C2C12 myoblasts [7]; DM with 100 mM myo-inositol, 48 hours): reduced
proportion of larger diameter myotubes (C2C12 myoblasts [7]; no dexamethasone): reduction

Molecule: [Cl-].[Li+] [LiCl]
IC50 (C2C12 myoblasts [2]; 48 hours): 19.9 mM
concentration at which cytotoxicity was not observed (C2C12 myoblasts [2]): up to 5 mM
FoxO3a expression ([1]; 10 μM dexamethasone): inhibited the up-regulation
number of observable myotubes (C2C12 myotubes [6]; microscopic observation, 50 mM LiCl): reduced
proportion of larger diameter myotubes (C2C12 myotubes [3]): larger diameter myotubes were observed
average myotube diameter (C2C12 myotubes [3]): increased
myotube formation and overall myotube diameters (C2C12 myoblasts [7]): enhanced myotube formation and increased overall myotube diameters

IMPase activity (IMPase): effective in inhibiting IMPase activity
Molecule: O=c1c2ccccc2[se]n1-c1ccccc1 [ebselen]
protein synthesis (C2C12 myotubes [4]; alone or with dexamethasone): effective in increasing protein synthesis
protein synthesis (C2C12 myotubes [4]; dexamethasone-treated myotubes): increased
body weight (C57BL/6J mice [8]; 15 mg/kg dexamethasone with ebselen, i.p. daily 14 days, vs untreated mice): significant weight loss
quadriceps mass (C57BL/6J mice [8]; 15 mg/kg dexamethasone, 1 or 3 mg/kg ebselen, i.p. daily 14 days): recovered
hanging time (C57BL/6J mice [8]; inverted hanging test, vs dexamethasone-treated mice): significantly enhanced
IMPase activity (C57BL/6J mice [8]; quadriceps): inhibitory effect of ebselen on IMPase activity was confirmed
muscle fiber cross-sectional area (C57BL/6J mice [8]; quadriceps, histology): increased
ratio of larger fibers (C57BL/6J mice [8]; quadriceps, histology): increased
expression of Atrogin-1 and Murf-1 (C57BL/6J mice [8]; quadriceps, qPCR): effectively reduced
grip strength (C57BL/6J mice [8]; vs dexamethasone-treated mice): significantly enhanced
body weight (C57BL/6J mice [9]; 30 mg/kg ebselen, oral gavage every 24 hours): no significant difference
concentration of myo-inositol (C57BL/6J mice [9]; gastrocnemius muscle damaged by glycerol): decreased
expression of Atrogin-1 and Murf-1 (C57BL/6J mice [9]; gastrocnemius, qPCR): effectively reduced
gastrocnemius muscle mass (C57BL/6J mice [9]; glycerol-injected muscle): increased
mass loss of splenic muscle (C57BL/6J mice [9]; glycerol-injected splenic muscle): significantly inhibited
damaged area (C57BL/6J mice [9]; histology, H&E): reduced
fiber cross-sectional area (C57BL/6J mice [9]; histology, H&E): larger
gastrocnemius mass (C57BL/6J mice [9]; non-injected muscles, oral ebselen): did not affect
concentration at which cytotoxicity was not observed (C2C12 myoblasts [2]): ≤ 10 µM
IC50 (C2C12 myoblasts [2]; Mus musculus, C2C12, 48 hours): 0.0224 mM
Atrogin-1 and FoxO3a expression [1]: inhibited the up-regulation
FoxO3a up-regulation caused by dexamethasone (FoxO3a): inhibited
myotube diameter and proportion of large diameter myotubes (human skeletal myoblasts): inhibited the effect of dexamethasone
average myotube diameter (C2C12 myotubes [3]): did not show a decrease
myotube formation and overall myotube diameters (C2C12 myoblasts [7]): enhanced myotube formation and increased overall myotube diameters
proportion of larger diameter myotubes (C2C12 myoblasts [7]; no dexamethasone): significantly increased

Molecule: 6-Bromoindirubin-3-oxime [BIO]
myotube formation and overall myotube diameters (C2C12 myoblasts [7]): inhibited myotube formation

— patent publication US11878003B2, “Composition comprising organoselenium compound for treatment of skeletal muscle atrophy” (Gwangju Institute of Science and Technology, priority 2021, dated 2024)
